{"source": "patent US20210346317A1", "about": "“TREATMENT OF HEMATOPOIETIC STEM CELL TRANSPLANT PATIENTS” (PRIOTHERA LIMITED, priority 2016, published 2021)", "key": {"[1]": {"system": "Recipient C57BL/6 or IDUAKI (B6.129S-Iduatm1.1Kmke/J) mice", "assay": "Mouse model of inherited metabolic disease (IMD): HSC engraftment after mild non-myeloablative conditioning", "assay_type": "in vivo", "description": "Recipient C57BL/6 or IDUAKI (B6.129S-Iduatm1.1Kmke/J) mice were conditioned with a mild non-myeloablative regimen. A limited number of 1×10E3 HSC were transplanted from congenic mice. Groups were either untreated or treated with KRP for 15 days."}, "patients undergoing HSCT": {"system": "patients undergoing HSCT", "assay": "Neutrophil engraftment in patients after allogeneic hematopoietic stem cell transplantation", "assay_type": "in vivo", "conditions": "for neutrophil count above baseline: e.g. 2 mg KRP203/per day", "procedure": "Day 1=drug treatment commences (e.g. 2 mg KRP203/per day)\nDay 2 and Day 10: Conditioning was performed as described above (e.g. Mini Seattle or RIC)\nDay 11: transplantation of stem cells from an allogeneic donor is being carried out\nTo monitor for engraftment of donor hematopoietic stem cells in recipients, the neutrophil count is measured usually daily. The commonly accepted definition of “day of engraftment” (take) is the first of three consecutive days with a neutrophil count higher than 500 cells per microliter. A neutrophil count of higher than 500 cells per microliter is reached in the below experiment, when the probability of engraftment is 1.0 (100%) versus baseline or higher. The donor origin of these cells is normally confirmed by genomic analyses on day 30."}, "[2]": {"conditions": "day 56, 1×10E3 HSC from congenic mice, treated for 15 days, vs untreated group"}}}
{"molecule": "NC(CO)(CO)CCc1ccc(Sc2cccc(OCc3ccccc3)c2)cc1Cl", "note": "[KRP203, 2-amino-2-[4-(3-benzyloxyphenylthio)-2-chlorophenyl]ethyl-propane-1,3-diol]", "values": [{"measurement": "donor cells in engrafted mice", "setting": "[1]; [2]", "result": "more donor cells than the untreated group"}, {"measurement": "mice engrafted", "setting": "[1]; [2]", "result": "More mice from the KRP203 treated group engrafted"}, {"measurement": "engraftment (conclusion)", "setting": "[1]; non-myeloablative conditions, limited HSC, treatment in the peri-transplant period", "result": "augments engraftment"}, {"measurement": "Probability of neutrophil engraftment", "setting": "patients undergoing HSCT; Day 0", "result": 0.00}, {"measurement": "Probability of neutrophil engraftment", "setting": "patients undergoing HSCT; Day 10", "result": 0.00}, {"measurement": "Probability of neutrophil engraftment", "setting": "patients undergoing HSCT; Day 11", "result": 0.33}, {"measurement": "neutrophil count above baseline", "setting": "patients undergoing HSCT; Day 11, control group 11%", "result": 33, "unit": "% above baseline"}, {"measurement": "Probability of neutrophil engraftment", "setting": "patients undergoing HSCT; Day 12", "result": 0.44}, {"measurement": "Probability of neutrophil engraftment", "setting": "patients undergoing HSCT; Day 13", "result": 0.67}, {"measurement": "Probability of neutrophil engraftment", "setting": "patients undergoing HSCT; Day 14", "result": 0.89}, {"measurement": "Probability of neutrophil engraftment", "setting": "patients undergoing HSCT; Day 15", "result": 1.00}, {"measurement": "neutrophil count above baseline", "setting": "patients undergoing HSCT; Day 15, control group 48%", "result": 100, "unit": "% above baseline"}, {"measurement": "Probability of neutrophil engraftment", "setting": "patients undergoing HSCT; Day 16", "result": 1.00}, {"measurement": "Probability of neutrophil engraftment", "setting": "patients undergoing HSCT; Day 17", "result": 1.00}, {"measurement": "Probability of neutrophil engraftment", "setting": "patients undergoing HSCT; Day 18", "result": 1.00}, {"measurement": "Probability of neutrophil engraftment", "setting": "patients undergoing HSCT; Day 19", "result": 1.00}, {"measurement": "Probability of neutrophil engraftment", "setting": "patients undergoing HSCT; Day 20", "result": 1.00}, {"measurement": "Probability of neutrophil engraftment", "setting": "patients undergoing HSCT; Day 21", "result": 1.00}, {"measurement": "Probability of neutrophil engraftment", "setting": "patients undergoing HSCT; Day 22", "result": 1.00}, {"measurement": "Probability of neutrophil engraftment", "setting": "patients undergoing HSCT; Day 23", "result": 1.00}, {"measurement": "speed of engraftment vs control group", "setting": "patients undergoing HSCT; FIG. 1 and Table 1, patients treated with KRP203", "result": "engrafted much faster than the control group"}]}
